This note sets out measurements from patent US8119663B2, “Heteroaryl-substituted piperidines” (Bayer Pharma Aktiengesellschaft, priority 2007, dated 2012).

Structures can show the parent of a compound that is named as a salt.

In test [1] the target is T1, human protease activated receptor 1 (PAR1) (Homo sapiens, UniProt P25116).
T1 construct: the cell stably expresses the endogenous human PAR1 receptor and the endogenous purinergic receptor P2Y2; endogenous in cells; host or cells: HEK293-derived recombinant cell line constitutively expressing mitochondrial aequorin
T1 sequence (P25116 22-425): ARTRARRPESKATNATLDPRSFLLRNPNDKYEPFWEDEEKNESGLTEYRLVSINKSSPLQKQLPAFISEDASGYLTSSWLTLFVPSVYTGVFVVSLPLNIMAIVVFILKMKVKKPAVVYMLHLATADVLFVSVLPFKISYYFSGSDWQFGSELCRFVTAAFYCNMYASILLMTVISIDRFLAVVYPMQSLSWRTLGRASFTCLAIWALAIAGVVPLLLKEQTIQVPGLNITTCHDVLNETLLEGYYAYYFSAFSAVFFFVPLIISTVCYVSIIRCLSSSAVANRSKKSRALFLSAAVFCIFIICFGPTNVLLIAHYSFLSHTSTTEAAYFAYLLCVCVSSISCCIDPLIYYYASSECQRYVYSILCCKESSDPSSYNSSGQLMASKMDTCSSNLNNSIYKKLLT
The test can be described thus: Cellular functional in vitro test (aequorin luminescence, PAR1 test cell). The class given is cell-based. The following applies: recombinant HEK293-derived cell line expressing aequorin; PAR1 agonist added at its EC50 5 minutes after test substance. The source says:
1.a) Cellular Functional In vitro Test
A recombinant cell line is used to identify […] of the human protease activated receptor 1 (PAR1) and to quantify the activity of the substances described herein. The cell is originally derived from a human embryonal kidney cell (HEK293; ATCC: American Type Culture Collection, Manassas, Va. 20108, USA). The test cell line constitutively expresses a modified form of the calcium-sensitive photoprotein aequorin which, after reconstitution with the cofactor coelenterazine, emits light when the free calcium concentration in the inner mitochondrial compartment is increased (Rizzuto R, Simpson A W, Brini M, Pozzan T.; Nature 1992, 358, 325-327). Additionally, the cell stably expresses the endogenous human PAR1 receptor and the endogenous purinergic receptor P2Y2. The resulting PAR1 test cell responds to stimulation of the endogenous PAR1 or P2Y2 receptor with an intracellular release of calcium ions, which can be quantified through resulting aequorin luminescence with a suitable luminometer (Milligan G, Marshall F, Rees S, Trends in Pharmacological Sciences 1996, 17, 235-237).
For testing the substance specificity, its effect after activation of the endogenous PAR1 receptor is compared to the effect after activation of the endogenous purinergic P2Y2 receptor which utilizes the same intracellular signal path.
Test procedure: The cells are plated out two days (48 hours) before the test in culture medium (DMEM F12, supplemented with 10% FCS, 2 mM glutamine, 20 mM HEPES, 1.4 mM pyruvate, 0.1 mg/ml gentamycin, 0.15% Na bicarbonate; BioWhittaker Cat.# BE04-687Q; B-4800 Verviers, Belgium) in 384-well microtitre plates and kept in a cell incubator (96% atmospheric humidity, 5% V/V CO2, 37° C.). On the day of the test, the culture medium is replaced by a tyrode solution (in mM: 140NaCl, 5l KCl, 1MgCl2, 2CaCl2, 20 glucose, 20 HEPES), which additionally contains the cofactor coelenterazine (25 μM) and glutathione (4 mM), and the microtitre plate is then incubated for a further 3-4 hours. The test substances are then pipetted onto the microtitre plate, and 5 minutes after the transfer of the test substances into the wells of the microtitre plate the plate is transferred into the luminometer, a PAR1 agonist concentration which corresponds to the EC50 is added and the resulting light signal is immediately measured in the luminometer. To distinguish an antagonist substance action from a toxic action, the endogenous purinergic receptor is immediately subsequently activated with agonist (ATP, final concentration 10 μM) and the resulting light signal is measured.

For test [2], the system named is platelet-rich plasma (platelet aggregation triggered by thrombin receptor agonist TRAP6, SFLLRN). The test can be described thus: Platelet aggregation in plasma (TRAP6/SFLLRN-induced, Born turbidimetry). It counts as cell-based. The settings on record: Homo sapiens; platelet-rich plasma of healthy volunteers; 10 min incubation at 37° C.; light transmission 5 minutes after agonist; concentration at which aggregation is 50% inhibited. Here is the method: 1.c) Platelet Aggregation in Plasma
To determine the platelet aggregation, blood of healthy volunteers of both sexes who had not received any thrombocyte aggregation-influencing medication for the last ten days is used. The blood is drawn into monovettes (Sarstedt, Nümbrecht, Germany) which contain, as anticoagulant, sodium citrate 3.8% (1 part of citrate+9 parts of blood). To obtain platelet-rich plasma, the citrated whole blood is centrifuged at 140 g for 20 min.
For the aggregation measurements, aliquots of the platelet-rich plasma are incubated with increasing concentrations of test substance at 37° C. for 10 min. Aggregation is then triggered by addition of a thrombin receptor agonist (TRAP6, SFLLRN) in an aggregometer and determined at 37° C. using the turbidimetric method according Born (Born, G. V. R., Cross M. J., The Aggregation of Blood Platelets; J. Physiol. 1963, 168, 178-195). The SFLLRN concentration giving maximum aggregation is individually determined for each donor.
To calculate the inhibitory effect, the increase of light transmission (amplitude of the aggregation curve in %) is determined 5 minutes after addition of the agonist in the presence and absence of test substance, and the inhibition is calculated. The concentration at which the aggregation is 50% inhibited is calculated from the inhibition curves.

In the case of `CCc1ccc(C2CC(c3nc(Cc4ccccc4Cl)no3)CN(C(=O)N3CCOCC3)C2)cc1` (racemic) [Example 60, 4-({3-[3-(2-Chlorobenzyl)-1,2,4-oxadiazol-5-yl]-5-(4-ethylphenyl)piperidin-1-yl}carbonyl)-morpholine], the figures for the IC50 in test [1] and in test [2] were 10 nM and 19600 nM, respectively.
`CCc1ccc(C2CC(c3nc(-c4c(F)cccc4F)no3)CN(C(=O)N3CCOCC3)C2)cc1` (racemic) [Example 39, 4-({3-[3-(2,6-Difluorophenyl)-1,2,4-oxadiazol-5-yl]-5-(4-ethylphenyl)piperidin-1-yl}carbonyl)-morpholine]: the IC50 in test [1] stood at 6.8 nM; in test [2], 5600 nM.
For the compound `O=C(N1CCOCC1)N1CC(c2ccc(OC(F)(F)F)cc2)CC(c2nc(-c3ccc(F)cc3F)no2)C1` (racemic) [Example 38, 4-({3-[3-(2,4-Difluorophenyl)-1,2,4-oxadiazol-5-yl]-5-[4-(trifluoromethoxy)phenyl]piperidin-1-yl}carbonyl)morpholine], the IC50 in test [1] turned out to be 31 nM; in test [2], 93000 nM.
For the compound `CC(C)(O)Cc1noc(C2CC(c3ccc(C(F)(F)F)cc3)CN(C(=O)N3CCC(C#N)CC3)C2)n1` (racemic) [Example 212, 1-({3-[3-(2-Hydroxy-2-methylpropyl)-1,2,4-oxadiazol-5-yl]-5-[4-(trifluoromethyl)phenyl]-piperidin-1-yl}carbonyl)piperidine-4-carbonitrile], in test [1], the IC50 is 142 nM.
For `CN(C)Cc1nc(C2CC(c3ccc(C(F)(F)F)cc3)CN(C(=O)N3CCOCC3)C2)no1` (single isomer, unassigned) [Example 170, {3-{5-[(Dimethylamino)methyl]-1,2,4-oxadiazol-3-yl}-5-[4-(trifluoromethyl)phenyl]piperidin-1-yl}(morpholin-4-yl)methanone hydrochloride], the IC50 in test [1] amounted to 18.8 nM.
The same measure, in the same setting: the figure for `COCCc1noc(C2CC(c3ccc(C(F)(F)F)cc3)CN(C(=O)N3CCC(O)CC3)C2)n1` (single isomer, unassigned) [Example 275, (4-Hydroxypiperidin-1-yl) {3-[3-(2-methoxyethyl)-1,2,4-oxadiazol-5-yl]-5-[4-(trifluoromethyl)-phenyl]piperidin-1-yl}methanone] is 10.3 nM.
With `CC(C)c1noc(C2CC(c3ccc(OC(F)(F)F)cc3)CN(C(=O)N3CCC(C#N)CC3)C2)n1` (racemic) [Example 520, 1-({3-[3-(Propan-2-yl)-1,2,4-oxadiazol-5-yl]-5-[4-(trifluoromethoxy)phenyl]piperidin-1-yl}-carbonyl)piperidine-4-carbonitrile], the IC50 in test [1] was found to be 11 nM.
Take `Cc1cc(C2CC(c3nc(-c4cccc(F)c4)no3)CN(C(=O)N3CCC(O)CC3)C2)ccc1OC(F)(F)F` (racemic) [Example 229, {3-[3-(3-Fluorophenyl)-1,2,4-oxadiazol-5-yl]-5-[3-methyl-4-(trifluoromethoxy)phenyl]piperidin-1-yl}(4-hydroxypiperidin-1-yl)methanone]: the IC50 in test [1] was found to be 1.72 nM.
As for `O=C(N1CCOCC1)N1CC(c2ccc(C(F)(F)F)cc2)CC(c2nc(-c3cccnc3)cs2)C1` (racemic) [Example 119, 4-({3-(4-Pyridin-3-yl-1,3-thiazol-2-yl)-5-[4-(trifluoromethyl)phenyl]piperidin-1-yl}carbonyl)-morpholine], the IC50 in test [1] worked out at 68 nM.
As to `COCCc1noc(C2CC(c3ccc(C)c(C(F)(F)F)c3)CN(C(=O)N3CCOCC3)C2)n1` (single isomer, unassigned) [Example 459, {3-[3-(2-Methoxyethyl)-1,2,4-oxadiazol-5-yl]-5-[4-methyl-3-(trifluoromethyl)phenyl]piperidin-1-yl}(morpholin-4-yl)methanone], the IC50 in test [1] was 84.2 nM.

One may read the IC50 as the concentration needed to halve the response being measured.
